Test: Plasma concentration in C57BL/6 mouse at 6 mg/kg, po administered as single dose after 0.25 to 24 hrs by LC/MS/MS analysis
Format: ADME, organism-based
Conditions: in vivo, time 0.25-24 hrs

Cp: < 1.01 ng/mL
SMILES: Nc1ncnc2c1ncn2[C@H]1C[C@@H](OCP(=O)(O)O)CO1

Source: ChEMBL document CHEMBL4665893, “Scalable Synthesis, In Vitro cccDNA Reduction, and In Vivo Antihepatitis B Virus Activity of a Phosphonomethoxydeoxythreosyl Adenine Prodrug” (J Med Chem, 2020)
